Results reported in PMC10165273, “Itch receptor MRGPRX4 interacts with the receptor activity–modifying proteins” (The Journal of Biological Chemistry, 2023).
Where “and” joins values, the source holds several entries; their conditions need not be identical. Equal entries are not always repeated. Where two headings read alike, the source gives them in different places.

Assays:
MRGPRX4 + RAMP1 = biological target: T1, MRGPRX4 + RAMP1 (Homo sapiens, UniProt Q96LA9); test: IP1 accumulation, MRGPRX4 coexpressed with RAMP1; type: cell-based; design: key to IP1 Basal / response to agonist, X4:ramp1.I:1 / response to agonist, X4:ramp1.I:2 / response to agonist, X4:ramp1.I:0.25 / response to agonist, X4:ramp1.I:0.5: % IP1; unstimulated mock = 0%, fully stimulated MRGPRX4 = 100%; conditions: for activation at 100 µM / activation at 20 µM / activation at 0.8 µM / activation at […] / activation at 0.032 µM / activation at 4 µM: 2 h, Fig S3d, read-out: IP1 accumulation; for activation at 100 µM: log [DCA] (M) -4; for activation at 20 µM: log [DCA] (M) -4.69897; for activation at 0.8 µM: log [DCA] (M) -6.09691; for activation at […]: log [DCA] (M) -6.79588; for activation at 0.032 µM: log [DCA] (M) -7.49485; for activation at 4 µM: log [DCA] (M) -5.39794
T1 construct: expressed in transfected cells; host or cells: HEK293T
T1 sequence (Q96LA9 whole entry): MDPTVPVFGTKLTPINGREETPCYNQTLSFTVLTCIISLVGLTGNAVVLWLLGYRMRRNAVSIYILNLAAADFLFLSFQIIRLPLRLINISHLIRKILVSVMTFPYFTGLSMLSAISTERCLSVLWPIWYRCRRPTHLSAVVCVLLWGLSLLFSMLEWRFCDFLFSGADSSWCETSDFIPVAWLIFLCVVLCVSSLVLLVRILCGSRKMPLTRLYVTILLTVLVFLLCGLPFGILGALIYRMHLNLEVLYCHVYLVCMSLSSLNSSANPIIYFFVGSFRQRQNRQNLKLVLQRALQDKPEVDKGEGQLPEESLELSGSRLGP
Description: (§1) HEK293T cells were transfected with 1 pg/cell of MRGPRX4 DNA, and the amount of DNA was kept constant at 2 pg/cell with pcDNA3.1(+) empty vector, unless otherwise specified. Twenty four hours after transfection, IP1 assay was performed as previously described ([51]). When applicable, cells were treated with 1 μM YM254890 (YM) or different concentrations of U73122 for 1 h prior to addition of agonist or buffer. After incubation for 2 h, HTRF reagents and IP1 calibration standards were added and incubated for 2 h in the dark at room temperature. Time-resolved fluorescence signals were read on the BioTek Synergy NEO-TRF Hybrid multi-mode reader (BioTek Instruments). All data were carried out in three independent experiments with three technical replicate each.
For a homogenous transfection of MRGPRX4, a master mix of MRGPRX4 DNA was made prior to addition of the RAMP DNA. […]
(§2) Data reduction, standard calibration, and transformation of HTRF data were performed as previously described ([51]). Normalized IP1 values were calculated relative to the unstimulated mock-transfected cells (set to 0%) and fully stimulated MRGPRX4 (alone if applicable) (set to 100%).

MRGPRX4 + RAMP3 = biological target: T2, MRGPRX4 + RAMP3 (Homo sapiens, UniProt Q96LA9); test: IP1 accumulation, MRGPRX4 coexpressed with RAMP3; type: cell-based; design: key: % IP1; unstimulated mock = 0%, fully stimulated MRGPRX4 = 100%; conditions: Figure 4c-f; agonist 100µM; X4:ramp3 1:2; MRGPRX4 = 100
T2 construct: expressed in transfected cells; host or cells: HEK293T
T2 sequence (Q96LA9 whole entry): as above

[1] = test system: mock-transfected HEK293T cells; test: IP1 accumulation, mock-transfected cells; type: cell-based, human; design: IP1 Basal / IP1 span / IP1 Emax / IP1 accumulation, dose-response (Figure 1a) / IP1 accumulation with YM (Figure 1c) / IP1 accumulation: unit not given here; conditions: for IP1 accumulation, dose-response (Figure 1a): pcDNA (mock), individual replicates; for IP1 accumulation: mock, Fig S3d-f
Description: as §1
Validation of CALCRL constructs was assayed by cotransfecting HEK293T cells with different tagged versions of CALCRL alone or with each RAMP and with the promiscuous Gqs5 Gq chimera protein, at a respective DNA ratio of 1:1:0.5. Gqs5 is an engineered Gq protein containing the last five amino acid residues of Gs, which allows Gs-coupled GPCRs to signal through Gq downstream signaling pathways ([55]). The homogenous transfection method described above was used for all DNA mixes. CALCRL:RAMP2:Gqs5-transfected cells served as positive control for RAMP functionality.
as §2

[2] = Mock, MRGPRX4 construct comparison (Fig. S4B,C-F)

For `C[C@H](CCC(=O)O)[C@H]1CC[C@H]2[C@@H]3CC[C@@H]4C[C@H](O)CC[C@]4(C)[C@H]3C[C@H](O)[C@]12C` [DCA, deoxycholic acid], which activation at 100 µM (MRGPRX4 + RAMP1; ratio MRGPRX4:RAMP1 1:0.25) is on record?
Its activation at 100 µM is 91.8%.

And the activation at 20 µM (MRGPRX4 + RAMP1; ratio MRGPRX4:RAMP1 1:0.25)?
Its activation at 20 µM is 80.7%.

What about the activation at 0.8 µM (MRGPRX4 + RAMP1; ratio MRGPRX4:RAMP1 1:0.25) of the same compound?
The activation at 0.8 µM was 27.4%.

And the activation at […] (MRGPRX4 + RAMP1; ratio MRGPRX4:RAMP1 1:0.25)?
Its activation at […] is 30.3%.

What about the activation at 0.032 µM (MRGPRX4 + RAMP1; ratio MRGPRX4:RAMP1 1:0.25) of the same compound?
Its activation at 0.032 µM is 28.5%.

And the activation at 100 µM (MRGPRX4 + RAMP1; ratio MRGPRX4:RAMP1 1:0.5)?
Its activation at 100 µM is 103%.

And the activation at 20 µM (MRGPRX4 + RAMP1; ratio MRGPRX4:RAMP1 1:0.5)?
The activation at 20 µM was 62.7%.

What about the activation at 4 µM (MRGPRX4 + RAMP1; ratio MRGPRX4:RAMP1 1:0.5) of the same compound?
Its activation at 4 µM is 38.6%.

And the activation at 0.8 µM (MRGPRX4 + RAMP1; ratio MRGPRX4:RAMP1 1:0.5)?
The activation at 0.8 µM was 26.5%.

And the activation at […] (MRGPRX4 + RAMP1; ratio MRGPRX4:RAMP1 1:0.5)?
Its activation at […] is 22.5%.

And the activation at 0.032 µM (MRGPRX4 + RAMP1; ratio MRGPRX4:RAMP1 1:0.5)?
The activation at 0.032 µM was 22.6%.

And the activation at 20 µM (MRGPRX4 + RAMP1; ratio MRGPRX4:RAMP1 1:1)?
The activation at 20 µM was 61.5%.

What about the activation at 4 µM (MRGPRX4 + RAMP1; ratio MRGPRX4:RAMP1 1:1) of the same compound?
The activation at 4 µM was 34.6%.

What about the activation at 0.8 µM (MRGPRX4 + RAMP1; ratio MRGPRX4:RAMP1 1:1) of the same compound?
The activation at 0.8 µM was 30.1%.

What about the activation at […] (MRGPRX4 + RAMP1; ratio MRGPRX4:RAMP1 1:1) of the same compound?
Its activation at […] is 22.8%.

And the activation at 20 µM (MRGPRX4 + RAMP1; ratio MRGPRX4:RAMP1 1:2)?
Its activation at 20 µM is 59.4%.

And the activation at 4 µM (MRGPRX4 + RAMP1; ratio MRGPRX4:RAMP1 1:2)?
Its activation at 4 µM is 29.7%.

What about the activation at 0.8 µM (MRGPRX4 + RAMP1; ratio MRGPRX4:RAMP1 1:2) of the same compound?
The activation at 0.8 µM was 22%.

And the activation at […] (MRGPRX4 + RAMP1; ratio MRGPRX4:RAMP1 1:2)?
Its activation at […] is 15.8%.

What about the Emax (MRGPRX4 + RAMP1; Figure 4a bottom, DNA ratio MRGPRX4:RAMP1 1:0.5, MRGPRX4 alone = 100, read-out: efficacy) of the same compound?
The Emax was 109%.

And the “response to agonist, X4:ramp1.I:0.25” value (MRGPRX4 + RAMP1; Figure 4c-f, agonist 100µM, X4:ramp1 1:0.25, MRGPRX4 = 100)?
Its value is 100.247 and 94.5976.

And the “response to agonist, X4:ramp1.I:0.5” value (MRGPRX4 + RAMP1; Figure 4c-f, agonist 100µM, X4:ramp1 1:0.5, MRGPRX4 = 100)?
Its value is 101.591 and 94.608.

And the “response to agonist, X4:ramp1.I:1” value (MRGPRX4 + RAMP1; Figure 4c-f, agonist 100µM, X4:ramp1 1:1, MRGPRX4 = 100)?
Its value is 97.7538 and 86.0836.

What about the “response to agonist, X4:ramp1.I:2” value (MRGPRX4 + RAMP1; Figure 4c-f, agonist 100µM, X4:ramp1 1:2, MRGPRX4 = 100) of the same compound?
Its value is 90.6013 and 100.616.

And the “IP1 Basal” value (MRGPRX4 + RAMP1; MRGPRX4 + RAMP1 0.25 pg (Fig. S3), normalized per agonist)?
The value was 25.16.

And the Emax (MRGPRX4 + RAMP1; MRGPRX4 + RAMP1 0.25 pg (Fig. S3), normalized per agonist, read-out: IP1 Emax)?
The Emax was 113%.

And the Emax (MRGPRX4 + RAMP1; MRGPRX4 + RAMP1 0.25 pg (Fig. S3), normalized per agonist, read-out: IP1 span)?
The Emax was 87.7%.

And the “IP1 Basal” value (MRGPRX4 + RAMP1; MRGPRX4 + RAMP1 0.5 pg (Fig. S3), normalized per agonist)?
Its value is 24.94.

And the Emax (MRGPRX4 + RAMP1; MRGPRX4 + RAMP1 0.5 pg (Fig. S3), normalized per agonist, read-out: IP1 Emax)?
The Emax was 117%.

And the Emax (MRGPRX4 + RAMP1; MRGPRX4 + RAMP1 0.5 pg (Fig. S3), normalized per agonist, read-out: IP1 span)?
Its Emax is 92%.

What about the “IP1 Basal” value (MRGPRX4 + RAMP1; MRGPRX4 + RAMP1 1 pg (Fig. S3), normalized per agonist) of the same compound?
The value was 22.25.

What about the Emax (MRGPRX4 + RAMP1; MRGPRX4 + RAMP1 1 pg (Fig. S3), normalized per agonist, read-out: IP1 Emax) of the same compound?
The Emax was 118%.

And the Emax (MRGPRX4 + RAMP1; MRGPRX4 + RAMP1 1 pg (Fig. S3), normalized per agonist, read-out: IP1 span)?
Its Emax is 95.8%.

What about the “IP1 Basal” value (MRGPRX4 + RAMP1; MRGPRX4 + RAMP1 2 pg (Fig. S3), normalized per agonist) of the same compound?
The value was 17.30.

And the Emax (MRGPRX4 + RAMP1; MRGPRX4 + RAMP1 2 pg (Fig. S3), normalized per agonist, read-out: IP1 Emax)?
The Emax was 112%.

What about the Emax (MRGPRX4 + RAMP1; MRGPRX4 + RAMP1 2 pg (Fig. S3), normalized per agonist, read-out: IP1 span) of the same compound?
Its Emax is 94.5%.

And the “response to agonist, X4:ramp3.I:2” value (MRGPRX4 + RAMP3)?
The value was 55.7055 and 63.4334.

And the Emax ([1]; Homo sapiens, HEK-293T, Mock, MRGPRX4 construct comparison (Fig. S4B,C-F))?
The Emax was 0.236%.

And the “IP1 Basal” value [1, 2]?
Its value is 2.330.

What about the IP1 span [1, 2] of the same compound?
Its IP1 span is -2.094.

And the “IP1 accumulation, dose-response (Figure 1a)” value (“IP1 accumulation … (Figure 1a)” below) ([1]; log [agonist] (M) -4)?
Its value is 0.2103 and 0.3669 and 0.293 and -0.07837 and 0.1649 and -0.08879 and 0.2113 and -0.2385 and -0.6593 and -0.4375 and -0.5166 and -0.9554.

What about the “IP1 accumulation … (Figure 1a)” value ([1]; log [agonist] (M) -4.95424) of the same compound?
Its value is 0.553 and 0.2642 and 0.3806 and 0.3517 and 0.05455 and 0.247 and 0.3525 and -0.3352 and -0.4263 and -0.5038 and 0.5136 and -0.7508.

What about the “IP1 accumulation … (Figure 1a)” value ([1]; log [agonist] (M) -5.90849) of the same compound?
The value was 0.1227 and 0.5487 and 0.6873 and 0.2386 and 0.02519 and 0.3705 and 0.5521 and -0.1483 and -0.4243 and -0.2808 and 0.06832 and -0.3071.

And the “IP1 accumulation … (Figure 1a)” value ([1]; log [agonist] (M) -6.86273)?
The value was 0.3536 and 0.9227 and 0.8938 and 0.5392 and 0.2564 and 0.9514 and 0.9872 and 0.3929 and 0.5666 and 0.2655 and 0.4716 and 0.3728.

What about the IP1 accumulation ([1]; log [DCA] (M) -4) of the same compound?
Its IP1 accumulation is 1.182 and 0.9551 and 1.627.

What about the IP1 accumulation ([1]; log [DCA] (M) -5.39794) of the same compound?
The IP1 accumulation was 0.3631 and 0.268 and 0.3023.
